Experimental findings from article PMC11968506, “Toxicokinetics and analytical toxicology of the phenmetrazine-derived new psychoactive substance 3,4-methylenedioxyphenmetrazine studied by means of in vitro systems” (Archives of Toxicology, 2025) are described below.

Structures are written as SMILES.

In this data set the target is CYP2C19 (Homo sapiens, UniProt P33261). The data set is described as follows: CYP inhibition cocktail assay in pHLM, CYP2C19 (omeprazole). As to conditions: inhibitor 20 µM. As to the method: A modified dual-cocktail based method (Dinger et al. [2014b]) was used. Substrate cocktail A consisted of 8.9 µM dextromethorphan (CYP2D6), 86 µM testosterone (CYP3A4), 3.5 µM diclofenac (CYP2C9), and 12 µM phenacetin (CYP1A2). Substrate cocktail B included 30 µM bupropion (CYP2B6), 2 µM amodiaquine (CYP2C8) and 21 µM omeprazole (CYP2C19). Substrate concentrations were near their respective Michaelis–Menten constant (Km) values (Dinger et al. [2014a]) and all concentrations are final. Enzyme inhibition was investigated using a positive control, a test group, a control group, an interference group, and a negative control. In the test group, specific inhibitors were replaced by MDPM (20 µM). Instead of inhibitors, phosphate buffer was used in the control group. Enzymes were replaced with phosphate buffer in the negative control group. The interference group was incubated like the control group, but the reaction was stopped with 20 µM MDPM in acetonitrile, also containing 2.5 µM trimipramine-d3. All groups were incubated with a NADPH-regenerating system, consisting of 5 mM isocitrate, 2 U/mL isocitrate dehydrogenase, 5 mM Mg^2+, and 1.2 mM NADP^+. Further, substrate cocktail A or B, 90 mM phosphate buffer (pH 7.4), and 200 U/mL superoxide dismutase were added to each group. […] All groups were preincubated for 10 min at 37 °C. Then, pHLM (0.4 mg microsomal protein/mL) was added to each group except the negative control. Incubations were done for 15 min at 37 °C. Therefore, 50 µL of acetonitrile (− 20 °C) containing 2.5 µM trimipramine-d3 as internal standard was added. Incubations were done in triplicates and organic solvent in the incubation mixture was below 1% (Chauret et al. [1998]). Afterwards the samples were vortexed and centrifuged for 2 min at 18,407×g. 70 µL of the supernatant were transferred to autosampler vials and 10 µL were injected onto the LC-HRMS/MS system. Enzyme inhibition was evaluated by metabolite formation. […] The following settings were used: unpaired; one-tailed; significance level, 0.05; confidence intervals, 99%.
Chain of CYP2C19 (P33261 whole entry): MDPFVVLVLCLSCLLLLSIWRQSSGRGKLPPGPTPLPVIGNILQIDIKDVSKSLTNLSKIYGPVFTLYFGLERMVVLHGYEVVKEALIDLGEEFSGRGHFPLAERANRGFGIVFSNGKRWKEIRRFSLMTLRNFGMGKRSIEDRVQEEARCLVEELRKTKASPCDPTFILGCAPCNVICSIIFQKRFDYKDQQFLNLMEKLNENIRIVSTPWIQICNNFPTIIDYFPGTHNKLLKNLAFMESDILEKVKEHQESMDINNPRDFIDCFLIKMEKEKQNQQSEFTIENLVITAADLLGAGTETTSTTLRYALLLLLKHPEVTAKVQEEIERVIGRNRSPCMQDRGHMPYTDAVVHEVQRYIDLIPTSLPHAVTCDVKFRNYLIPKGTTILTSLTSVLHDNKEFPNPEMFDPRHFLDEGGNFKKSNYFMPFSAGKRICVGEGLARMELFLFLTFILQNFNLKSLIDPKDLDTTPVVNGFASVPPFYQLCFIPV

For the compound `CC1NCCOC1c1ccc2c(c1)OCO2` (centres unmarked) [MDPM, 2-(1,3-benzodioxol-5-yl)-3-methylmorpholine], under “omeprazole 21 µM, pHLM 0.4 mg/mL, 15 min, control without inhibitor = 100%”, the CYP2C19 metabolite formation stood at 86%. Further, the “inhibition of CYP2C19” value (omeprazole, pHLM, t-test versus control) is listed as “no significant inhibition”.
